From patent US7935706B2, “Nitrogen-containing heterocycle derivatives substituted with cyclic group” (Shionogi & Co., Ltd., priority 2006, dated 2011)
Like-named read-outs stand apart in the source and are kept apart here.

Key:
NR1/NR2B receptor = target: T1, NR1/NR2B receptor (Rattus norvegicus, UniProt P35439+Q00960); experiment: Test of binding with NMDA receptor (NR1/NR2B receptor): competition with [3H]-Ifenprodil on rat cerebral cortex membrane specimen
T1 construct: from tissue; host or cells: rat cerebral cortex membranes (male Slc: Wistar rat)
T1 sequence (Q00960 27-1482, other chains not shown): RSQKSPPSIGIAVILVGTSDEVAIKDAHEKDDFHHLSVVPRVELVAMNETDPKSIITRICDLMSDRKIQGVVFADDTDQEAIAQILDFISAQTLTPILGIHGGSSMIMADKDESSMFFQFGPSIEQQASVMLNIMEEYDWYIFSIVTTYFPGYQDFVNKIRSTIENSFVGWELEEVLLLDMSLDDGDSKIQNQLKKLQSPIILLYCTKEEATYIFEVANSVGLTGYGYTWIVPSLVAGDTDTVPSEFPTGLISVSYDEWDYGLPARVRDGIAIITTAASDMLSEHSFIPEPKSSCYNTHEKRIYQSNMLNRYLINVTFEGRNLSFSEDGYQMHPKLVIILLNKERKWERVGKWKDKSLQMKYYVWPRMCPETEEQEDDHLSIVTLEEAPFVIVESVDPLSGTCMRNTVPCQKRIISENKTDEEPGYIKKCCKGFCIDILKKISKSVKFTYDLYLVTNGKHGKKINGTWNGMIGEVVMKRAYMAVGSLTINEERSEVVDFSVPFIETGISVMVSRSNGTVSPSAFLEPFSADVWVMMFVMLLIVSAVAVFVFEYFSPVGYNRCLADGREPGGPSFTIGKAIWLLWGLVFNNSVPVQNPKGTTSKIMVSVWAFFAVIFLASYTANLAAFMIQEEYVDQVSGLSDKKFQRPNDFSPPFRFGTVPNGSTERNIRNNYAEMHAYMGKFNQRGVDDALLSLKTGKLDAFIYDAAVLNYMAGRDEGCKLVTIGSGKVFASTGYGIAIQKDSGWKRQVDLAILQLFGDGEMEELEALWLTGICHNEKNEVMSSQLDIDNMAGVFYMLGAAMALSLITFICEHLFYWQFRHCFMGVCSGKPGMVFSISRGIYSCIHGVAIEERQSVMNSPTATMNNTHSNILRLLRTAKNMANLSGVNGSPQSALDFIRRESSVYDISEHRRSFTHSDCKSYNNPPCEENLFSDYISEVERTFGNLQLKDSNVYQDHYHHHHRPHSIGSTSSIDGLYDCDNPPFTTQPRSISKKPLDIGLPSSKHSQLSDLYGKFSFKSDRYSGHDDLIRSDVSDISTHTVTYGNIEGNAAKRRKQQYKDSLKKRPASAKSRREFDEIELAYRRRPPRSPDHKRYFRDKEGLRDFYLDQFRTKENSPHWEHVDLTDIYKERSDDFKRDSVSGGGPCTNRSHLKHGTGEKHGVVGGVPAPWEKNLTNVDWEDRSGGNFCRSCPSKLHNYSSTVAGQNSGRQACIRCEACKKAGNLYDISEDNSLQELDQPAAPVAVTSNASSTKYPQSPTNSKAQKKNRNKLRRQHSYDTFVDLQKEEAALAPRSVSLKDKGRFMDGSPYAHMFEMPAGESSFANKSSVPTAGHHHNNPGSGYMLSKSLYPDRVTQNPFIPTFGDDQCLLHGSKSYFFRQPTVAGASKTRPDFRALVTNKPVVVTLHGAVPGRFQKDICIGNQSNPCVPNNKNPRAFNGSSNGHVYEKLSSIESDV
Description: Test of Binding with NMDR Receptor (NR1/NR2B Receptor)
Using Ifenprodil which is an antagonist specific for a NR1/NR2B subtype receptor as a ligand, an experiment of competition between a receptor and a test compound was performed.
Using a male Slc: Wistar rat as an animal, a brain was isolated after decapitation, and a cerebral cortex was fractionated. The cerebral cortex was homogenized with a 20-fold amount of an ice-cooled 50 mM Tris/HCl buffer (pH 7.4), and the homogenate was centrifuged at 4° C. and 27,500×g for 10 minutes. The resulting precipitate was suspended in the same buffer, and this was again centrifuged. This operation was repeated for three times, the resulting precipitate was suspended in a buffer, and this was stored at −80° C. Immediately before an experiment, the frozen suspension was thawed at room temperature, this was centrifuged at 4° C. and 27,500×g for 10 minutes, and the resulting precipitate was suspended in a buffer. Further, the suspension was diluted 10-fold with a buffer, and this was used as a membrane specimen in an experiment. In a binding experiment, to 470 μl of the membrane specimen were added […] of each of test compounds having different concentrations, 10 μl of a labeled ligand [^3H]-Ifenprodil and 10 μl GBR-12909, followed by incubation at an ice temperature for 120 minutes. A concentration of [^3H]-Ifenprodil of the labeled ligand was finally 5 nM, and a concentration of GBR-12909 was finally 3 μM. For measuring a total binding amount, DMSO as a solvent was used and, for measuring a non-specific binding amount, 100 μM Ifenprodil was used. GBR-12909 was added in order to block binding of [^3H]-Ifenprodil to non-polyamine-sensitive site. After incubation, a bound formand a free foramwere separated using Whatman GF/C filter (manufactured by Whatman), and the filter was washed with 2.5 ml ice-cooled buffer four times. The filter was immersed in liquid scintillation (Cryasol I, manufactured by Nacalai tesque), and radioactivity (dpm) was measured with a liquid scintillation counter. From a measured value, a binding inhibition rate (%) was obtained by the following equation, and a dose at which binding is inhibited 50% (IC50) was calculated. A formula of GBR-12909 (vanoxerine) is shown below.
Binding inhibition rate(%)=100−[(binding amount in the presence of test compound−non-specific binding amount)/(total binding amount−non-specific binding amount)]×100

[1] = target: T2, NMDA receptor (NR1 subunit and NR2B subunit) (Mus musculus, UniProt P35438+Q01097); experiment: Measurement of expression of NMDA receptor and Ca ion influx amount (glutamic acid/glycine-induced, HEK293 cell co-expressing NR1 and NR2B subunits, Fluo-3/AM); assay type: cell-based
T2 construct: expressed in transfected cells; host or cells: HEK293 cells, transient transfection with pcDNA3.1 plasmids
T2 sequence (Q01097 27-1482, other chains not shown): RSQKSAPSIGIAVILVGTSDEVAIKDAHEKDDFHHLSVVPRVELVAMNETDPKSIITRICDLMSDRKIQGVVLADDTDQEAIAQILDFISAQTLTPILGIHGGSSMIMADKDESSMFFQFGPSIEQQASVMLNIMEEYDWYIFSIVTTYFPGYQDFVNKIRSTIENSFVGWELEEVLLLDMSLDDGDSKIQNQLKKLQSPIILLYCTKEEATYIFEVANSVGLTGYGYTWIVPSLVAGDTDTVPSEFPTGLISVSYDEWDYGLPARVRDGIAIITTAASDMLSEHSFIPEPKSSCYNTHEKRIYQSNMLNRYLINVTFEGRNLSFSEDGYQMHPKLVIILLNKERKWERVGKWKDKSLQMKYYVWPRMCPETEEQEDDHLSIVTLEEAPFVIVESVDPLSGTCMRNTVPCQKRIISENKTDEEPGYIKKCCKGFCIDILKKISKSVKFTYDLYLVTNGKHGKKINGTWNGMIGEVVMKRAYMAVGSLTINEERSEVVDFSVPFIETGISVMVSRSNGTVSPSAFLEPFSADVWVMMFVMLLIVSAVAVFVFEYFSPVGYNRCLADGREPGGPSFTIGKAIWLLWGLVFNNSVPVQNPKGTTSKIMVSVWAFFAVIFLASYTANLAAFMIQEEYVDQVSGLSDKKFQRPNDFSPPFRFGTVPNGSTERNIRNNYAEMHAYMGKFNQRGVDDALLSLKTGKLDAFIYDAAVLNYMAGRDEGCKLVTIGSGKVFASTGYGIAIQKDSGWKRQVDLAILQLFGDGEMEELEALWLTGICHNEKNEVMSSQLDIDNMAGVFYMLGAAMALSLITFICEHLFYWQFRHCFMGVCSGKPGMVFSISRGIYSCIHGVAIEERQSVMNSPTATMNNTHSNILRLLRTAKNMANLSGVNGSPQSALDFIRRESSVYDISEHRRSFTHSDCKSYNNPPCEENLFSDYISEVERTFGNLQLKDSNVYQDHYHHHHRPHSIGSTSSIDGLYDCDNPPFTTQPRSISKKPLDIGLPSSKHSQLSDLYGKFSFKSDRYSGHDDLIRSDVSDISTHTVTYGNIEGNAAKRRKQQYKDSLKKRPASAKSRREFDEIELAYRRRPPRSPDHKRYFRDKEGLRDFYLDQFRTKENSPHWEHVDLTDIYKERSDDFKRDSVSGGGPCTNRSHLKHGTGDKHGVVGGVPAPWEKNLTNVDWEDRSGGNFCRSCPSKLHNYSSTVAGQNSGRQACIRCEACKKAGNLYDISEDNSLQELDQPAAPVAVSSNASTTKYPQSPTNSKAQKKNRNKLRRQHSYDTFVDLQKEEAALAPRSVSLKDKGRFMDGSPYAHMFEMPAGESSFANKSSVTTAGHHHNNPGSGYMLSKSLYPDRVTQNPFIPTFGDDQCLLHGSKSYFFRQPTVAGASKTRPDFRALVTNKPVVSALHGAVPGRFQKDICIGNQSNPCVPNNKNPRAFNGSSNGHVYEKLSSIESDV
Description: Measurement of Expression of NMDA Receptor and Ca Ion Influx Amount
A complementary DNA (cDNA) of a mouse NMDA receptor subunit was transiently introduced into a HEK293 cell and, after 1 day from introduction, change in a glutamic acid/glycine-induced intracelluar Ca amount was measured using a Ca ion reactive fluorescent coloring matter.
The HEK293 cell was cultured, and passaged using a modified Dulbecco's Eagle medium (DMEM, low glucose).
The HEK293 cell (20,000/well) was seeded on a 96-well plate, a NR1 subunit and a NR2B subunit of the NMDA receptor incorporated into the pcDNA3.1 plasmid were transiently introduced into a cell, and the subunits were co-expressed. An introduction amount of a DNA was 0.025 μg in the case of the NR1 subunit, and 0.075 μg in the case of NR2B subunit per well. For the cell after introduction, cell death was inhibited using 50 μM of the NMDA receptor antagonist MK-801.
For adjusting a test compound and washing a cell, Krebs/Ringer/Hepes buffer (KRH, Ca: 5 mM) was used.
After 1 day from introduction, the NMDA receptor antagonist MK-801 was washed out using the KRH buffer, and a Ca ion indication fluorescent coloring matter Fluo-3/AM was made to be taken into the cell. Ca ion influx was induced with 20 μM glutamic acid/2 μM glycine. Change in a fluorescent amount due to Ca ion influx into the cell was measured at excitation of 480 nm using a fluorescent imaging system FDSS 3000.
From a measured value of the test compound, a Ca ion influx inhibition rate (%) was obtained by the following equation, and a dose at which influx is inhibited 50% (IC50) was calculated.
Ca ion influx inhibition rate(%)=100−[(fluorescent amount in the presence of test compound−background fluorescent amount)/(total fluorescent amount−background fluorescent)]×100

[2] = [3H]-Ifenprodil 5 nM, GBR-12909 3 μM, rat cerebral cortex membranes, ice temperature 120 minutes, read-out: NR2B (IC50 μM)
[3] = same Ca ion influx test, read-out: IC50 (Ca ion influx inhibition)
[4] = same binding test, read-out: IC50 (binding with NR1/NR2B receptor)
[5] = Ca ion influx induced with 20 μM glutamic acid/2 μM glycine, HEK293 cell with mouse NR1/NR2B, read-out: Ca2+ IC50

Structure (SMILES)	IC50 (NR1/NR2B receptor; [2]) [µM]	IC50 [1, 3] [µM]	IC50 (NR1/NR2B receptor; [4]) [µM]	IC50 [1, 5] [µM]
O=C(Nc1ccc2[nH]c(=O)sc2c1)C(=O)N1CCN(c2ccc(Cl)cc2)CC1 [Compound I-90]	0.026	≤ 0.1		
O=C(Nc1ccc2[nH]c(=O)oc2c1)C(=O)N1CCN(c2ccc(C(F)(F)F)c(F)c2)CC1 [Compound I-98]	0.015	≤ 0.1		
O=C(Nc1ccc2[nH]c(=O)oc2c1)C(=O)N1CCN(c2ccc(F)c(F)c2)CC1 [Compound I-99]		≤ 0.1	≤ 0.1	
O=C(Nc1ccc2[nH]c(=O)oc2c1)C(=O)N1CCCN(c2ccc(Cl)cc2)CC1 [Compound I-100]	0.074			0.01
O=C(Nc1cnc2[nH]c(=O)[nH]c2c1)C(=O)N1CCN(c2ccc(C(F)(F)F)cc2)CC1 [Compound I-101]	0.011			0.001
O=C(Nc1ccc2[nH]c(=O)oc2c1)C(=O)N1CCN(c2ccc(C(F)(F)F)cn2)CC1 [Compound I-103]	0.018	≤ 0.1		
O=C(Nc1ccc2[nH]c(=O)oc2c1)C(=O)N1CCN(c2ccc(Cl)c(Cl)c2)CC1 [Compound I-104]	0.016			0.001
O=C(Nc1cnc2[nH]c(=O)oc2c1)C(=O)N1CCN(c2ccc(Cl)c(Cl)c2)CC1 [Compound I-105]	0.045			0.01
O=C(Nc1cnc2[nH]c(=O)oc2c1)C(=O)N1CCN(c2ccc(C(F)(F)F)c(F)c2)CC1 [Compound I-107]		≤ 0.1	≤ 0.1	
O=C(Nc1ccc2[nH]c(=O)oc2c1)C(=O)N1CCN(c2ccc(Cl)c(F)c2)CC1 [Compound I-109]	0.012			0.001
O=C(Nc1cnc2[nH]c(=O)oc2c1)C(=O)N1CCN(c2ccc(Cl)c(F)c2)CC1 [Compound I-113]	0.034			0.034
O=C(Nc1ccc2[nH]c(=O)oc2c1)C(=O)N1CCCN(c2ccc(C(F)(F)F)c(F)c2)CC1 [Compound I-114]		≤ 0.1	≤ 0.1	
O=C(CC1(O)CCN(c2ccc(C(F)(F)F)c(F)c2)CC1)Nc1ccc2[nH]c(=O)oc2c1 [Compound I-116]	0.049			0.049
O=C(Nc1ccc2[nH]c(=O)oc2c1)C(=O)N1CCCN(c2ccc(Cl)c(F)c2)CC1 [Compound I-154]	0.044			0.004
C[C@@H]1CN(C(=O)C(=O)Nc2ccc3[nH]c(=O)oc3c2)CCN1c1ccc(Cl)cc1 [Compound I-177]	0.059	≤ 0.1		
C[C@@H]1CN(c2ccc(Cl)cc2)CCN1C(=O)C(=O)Nc1ccc2[nH]c(=O)oc2c1 [Compound I-178]	0.029	≤ 0.1		
O=C(C=C1CCN(c2ccc(C(F)(F)F)c(F)c2)CC1)Nc1ccc2[nH]c(=O)oc2c1 [Compound I-180]	0.062			0.013
O=C(C=C1CCN(c2ccc(Cl)c(Cl)c2)CC1)Nc1ccc2[nH]c(=O)oc2c1 [Compound I-184]	0.041			0.011
O=C(CC1(O)CCN(c2ccc(Cl)c(Cl)c2)CC1)Nc1ccc2[nH]c(=O)oc2c1 [Compound I-187]	0.054			0.014
O=C(NCCC1CCN(c2ccc(Cl)c(Cl)c2)CC1)c1ccc(=O)[nH]c1 [Compound I-196]	0.023			0.015
C[C@@H]1CN(C(=O)C(=O)Nc2ccc3[nH]c(=O)oc3c2)CCN1c1ccc(Cl)c(F)c1 [Compound I-207]		≤ 0.1	≤ 0.1	
O=C(Nc1ccc2[nH]c(=O)oc2c1)C(=O)N1CCN(c2ccc(OC(F)(F)F)cc2)CC1 [Compound I-211]		≤ 0.1	≤ 0.1	
C[C@@H]1CN(c2ccc(F)c(Cl)c2)CCN1C(=O)C(=O)Nc1ccc2[nH]c(=O)oc2c1 [Compound I-221]		≤ 0.1	≤ 0.1	
O=C(C=C1CCN(c2ccc(OC(F)(F)F)cc2)CC1)Nc1ccc2[nH]c(=O)oc2c1 [Compound I-225]		≤ 0.1	≤ 0.1	
C[C@@H]1CN(c2ccc(C(F)(F)F)cn2)CCN1C(=O)C(=O)Nc1ccc2[nH]c(=O)oc2c1 [Compound I-227]		≤ 0.1	≤ 0.1	
